Source: the supplement of paper PMC11208160

Test: recombinant barcode read abundance after kanamycin selection (control-corrected) (log10(CPM+1)); higher = more efficient recombination; sequences stand for … in AGTGCAGAGAAAATCGGCCAGTTTTCTCTGCCTGCAGTCCGCATGCCGT…ATTTATGCAGCGGACTGCCTTTCTCCCAAAGTGATAAACCGGACAGTATCATGGACCGGTTTTCCCGGTAATCCGTATTTGCAAGGTTGGTTTCACT; site = the 11-nt target
Procedure: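 Same pooled E. coli target screen (IS621 bridge recombinase, kanamycin selection, control-corrected CPM, mean of 2 biological replicates). Here the two core-binding nucleotides of the LTG and RTG of the bridge RNA target-binding loop are mutated. Target and donor CT cores are held constant, and the other 9 guide positions match the target. The target is read from the library oligo sequence. Molecule = full bridge RNA written as DNA: nt 1-80 from the library oligo, rest WT scaffold.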

Sequence	recombinant barcode read abundance (log10)
AGGCCTCGGTGGGTTCTAACCTGTTGCCTAG [AGGCCTCCTAG_LTGcore_GG_RTGcore_CT] (site AGGCCTCCTAG) (LTG core: GG, RTG core: CT)	1.04
AGGCCTCTATGGGTTCTAACCTGTTGCCTTA [AGGCCTCCTAG_LTGcore_TA_RTGcore_TA] (site AGGCCTCCTAG) (LTG core: TA, RTG core: TA)	0.0149
AGGCCTCTGTGGGTTCTAACCTGTTGCCTCA [AGGCCTCCTAG_LTGcore_TG_RTGcore_TG] (site AGGCCTCCTAG) (LTG core: TG, RTG core: TG)	0.186
AGGCGGGAATGGGTTCTAACCTGTTGCGGTT [AGGCGGGCTCC_LTGcore_AA_RTGcore_AA] (site AGGCGGGCTCC) (LTG core: AA, RTG core: AA)	0.154
AGGCGGGCCTGGGTTCTAACCTGTTGCGGAG [AGGCGGGCTCC_LTGcore_CC_RTGcore_CT] (site AGGCGGGCTCC) (LTG core: CC, RTG core: CT)	1.48
AGGCGGGCGTGGGTTCTAACCTGTTGCGGAG [AGGCGGGCTCC_LTGcore_CG_RTGcore_CT] (site AGGCGGGCTCC) (LTG core: CG, RTG core: CT)	2.17
AGGCGGGCTTGGGTTCTAACCTGTTGCGGAG [AGGCGGGCTCC_LTGcore_CT_RTGcore_CT] (site AGGCGGGCTCC) (LTG core: CT, RTG core: CT)	1.66
AGGCGGGGCTGGGTTCTAACCTGTTGCGGGC [AGGCGGGCTCC_LTGcore_GC_RTGcore_GC] (site AGGCGGGCTCC) (LTG core: GC, RTG core: GC)	0.0608
AGGCGGGTGTGGGTTCTAACCTGTTGCGGAG [AGGCGGGCTCC_LTGcore_TG_RTGcore_CT] (site AGGCGGGCTCC) (LTG core: TG, RTG core: CT)	0.159
AGGCGGTAGTGGGTTCTAACCTGTTGCTTAG [AGGCGGTCTAA_LTGcore_AG_RTGcore_CT] (site AGGCGGTCTAA) (LTG core: AG, RTG core: CT)	0.187
AGGCGGTAGTGGGTTCTAACCTGTTGCTTCT [AGGCGGTCTAA_LTGcore_AG_RTGcore_AG] (site AGGCGGTCTAA) (LTG core: AG, RTG core: AG)	0.197
AGGCGGTCTTGGGTTCTAACCTGTTGCTTAG [AGGCGGTCTAA_LTGcore_CT_RTGcore_CT] (site AGGCGGTCTAA) (LTG core: CT, RTG core: CT)	2.29
AGGCGGTCTTGGGTTCTAACCTGTTGCTTAT [AGGCGGTCTAA_LTGcore_CT_RTGcore_AT] (site AGGCGGTCTAA) (LTG core: CT, RTG core: AT)	0.144
AGGCGGTCTTGGGTTCTAACCTGTTGCTTCT [AGGCGGTCTAA_LTGcore_CT_RTGcore_AG] (site AGGCGGTCTAA) (LTG core: CT, RTG core: AG)	0.284
AGGCGGTCTTGGGTTCTAACCTGTTGCTTTC [AGGCGGTCTAA_LTGcore_CT_RTGcore_GA] (site AGGCGGTCTAA) (LTG core: CT, RTG core: GA)	0.389
AGGCGGTCTTGGGTTCTAACCTGTTGCTTTG [AGGCGGTCTAA_LTGcore_CT_RTGcore_CA] (site AGGCGGTCTAA) (LTG core: CT, RTG core: CA)	0.0581
AGGCGGTGCTGGGTTCTAACCTGTTGCTTGC [AGGCGGTCTAA_LTGcore_GC_RTGcore_GC] (site AGGCGGTCTAA) (LTG core: GC, RTG core: GC)	0.104
AGGCGGTGGTGGGTTCTAACCTGTTGCTTAG [AGGCGGTCTAA_LTGcore_GG_RTGcore_CT] (site AGGCGGTCTAA) (LTG core: GG, RTG core: CT)	0.074
AGGCGGTGGTGGGTTCTAACCTGTTGCTTCC [AGGCGGTCTAA_LTGcore_GG_RTGcore_GG] (site AGGCGGTCTAA) (LTG core: GG, RTG core: GG)	0.0144
AGGCGGTTGTGGGTTCTAACCTGTTGCTTCA [AGGCGGTCTAA_LTGcore_TG_RTGcore_TG] (site AGGCGGTCTAA) (LTG core: TG, RTG core: TG)	0.0951
AGTCTTAAATGGGTTCTAACCTGTTGCCATT [AGTCTTACTTG_LTGcore_AA_RTGcore_AA] (site AGTCTTACTTG) (LTG core: AA, RTG core: AA)	0.0761
AGTCTTACATGGGTTCTAACCTGTTGCCATG [AGTCTTACTTG_LTGcore_CA_RTGcore_CA] (site AGTCTTACTTG) (LTG core: CA, RTG core: CA)	0.21

Sequence	recombinant barcode read abundance (log10)
AGTCTTACGTGGGTTCTAACCTGTTGCCACG [AGTCTTACTTG_LTGcore_CG_RTGcore_CG] (site AGTCTTACTTG) (LTG core: CG, RTG core: CG)	0.213
AGTCTTACTTGGGTTCTAACCTGTTGCCAAG [AGTCTTACTTG_LTGcore_CT_RTGcore_CT] (site AGTCTTACTTG) (LTG core: CT, RTG core: CT)	0.0171
AGTCTTACTTGGGTTCTAACCTGTTGCCAAT [AGTCTTACTTG_LTGcore_CT_RTGcore_AT] (site AGTCTTACTTG) (LTG core: CT, RTG core: AT)	0.144
AGTCTTACTTGGGTTCTAACCTGTTGCCACC [AGTCTTACTTG_LTGcore_CT_RTGcore_GG] (site AGTCTTACTTG) (LTG core: CT, RTG core: GG)	0.0199
AGTCTTACTTGGGTTCTAACCTGTTGCCAGA [AGTCTTACTTG_LTGcore_CT_RTGcore_TC] (site AGTCTTACTTG) (LTG core: CT, RTG core: TC)	0.0445
AGTCTTACTTGGGTTCTAACCTGTTGCCATA [AGTCTTACTTG_LTGcore_CT_RTGcore_TA] (site AGTCTTACTTG) (LTG core: CT, RTG core: TA)	0.136
AGTCTTACTTGGGTTCTAACCTGTTGCCATC [AGTCTTACTTG_LTGcore_CT_RTGcore_GA] (site AGTCTTACTTG) (LTG core: CT, RTG core: GA)	0.155
AGTCTTACTTGGGTTCTAACCTGTTGCCATT [AGTCTTACTTG_LTGcore_CT_RTGcore_AA] (site AGTCTTACTTG) (LTG core: CT, RTG core: AA)	0.196
AGTCTTAGCTGGGTTCTAACCTGTTGCCAGC [AGTCTTACTTG_LTGcore_GC_RTGcore_GC] (site AGTCTTACTTG) (LTG core: GC, RTG core: GC)	0.197
AGTCTTAGGTGGGTTCTAACCTGTTGCCACC [AGTCTTACTTG_LTGcore_GG_RTGcore_GG] (site AGTCTTACTTG) (LTG core: GG, RTG core: GG)	0.274
AGTCTTATATGGGTTCTAACCTGTTGCCATA [AGTCTTACTTG_LTGcore_TA_RTGcore_TA] (site AGTCTTACTTG) (LTG core: TA, RTG core: TA)	0.153
AGTCTTATTTGGGTTCTAACCTGTTGCCAAG [AGTCTTACTTG_LTGcore_TT_RTGcore_CT] (site AGTCTTACTTG) (LTG core: TT, RTG core: CT)	0.137
ATGCTTTAGTGGGTTCTAACCTGTTGCCTAG [ATGCTTTCTAG_LTGcore_AG_RTGcore_CT] (site ATGCTTTCTAG) (LTG core: AG, RTG core: CT)	0.0782
ATGCTTTCCTGGGTTCTAACCTGTTGCCTAG [ATGCTTTCTAG_LTGcore_CC_RTGcore_CT] (site ATGCTTTCTAG) (LTG core: CC, RTG core: CT)	0.0734
ATGCTTTCCTGGGTTCTAACCTGTTGCCTGG [ATGCTTTCTAG_LTGcore_CC_RTGcore_CC] (site ATGCTTTCTAG) (LTG core: CC, RTG core: CC)	0.0978
ATGCTTTCGTGGGTTCTAACCTGTTGCCTAG [ATGCTTTCTAG_LTGcore_CG_RTGcore_CT] (site ATGCTTTCTAG) (LTG core: CG, RTG core: CT)	0.0216
ATGCTTTCTTGGGTTCTAACCTGTTGCCTAC [ATGCTTTCTAG_LTGcore_CT_RTGcore_GT] (site ATGCTTTCTAG) (LTG core: CT, RTG core: GT)	0.191
ATGCTTTCTTGGGTTCTAACCTGTTGCCTTG [ATGCTTTCTAG_LTGcore_CT_RTGcore_CA] (site ATGCTTTCTAG) (LTG core: CT, RTG core: CA)	0.0598
ATGCTTTGATGGGTTCTAACCTGTTGCCTAG [ATGCTTTCTAG_LTGcore_GA_RTGcore_CT] (site ATGCTTTCTAG) (LTG core: GA, RTG core: CT)	0.229
ATGCTTTGATGGGTTCTAACCTGTTGCCTTC [ATGCTTTCTAG_LTGcore_GA_RTGcore_GA] (site ATGCTTTCTAG) (LTG core: GA, RTG core: GA)	0.0368
ATGCTTTGCTGGGTTCTAACCTGTTGCCTGC [ATGCTTTCTAG_LTGcore_GC_RTGcore_GC] (site ATGCTTTCTAG) (LTG core: GC, RTG core: GC)	0.0848
ATGCTTTTATGGGTTCTAACCTGTTGCCTAG [ATGCTTTCTAG_LTGcore_TA_RTGcore_CT] (site ATGCTTTCTAG) (LTG core: TA, RTG core: CT)	0.238
